From patent US20250303006A1, “BIOCOMPATIBLE ANTISEPTIC COMPOSITION CONTAINING 9-HYDROXYCALABAXANTHONE AND/OR RELATED XANTHONES” (UNIVERSITAT DE LES ILLES BALEARS, priority 2022, published 2025) come the findings set out here.

For one test, the system named is C. albicans. In words: Candida albicans culture and proliferation assay. As to conditions: 0.003% HCX, 24 h. In kind it is cell-based. The procedure: C. albicans was grown from frozen stocks in LB broth (Scharlab), at 37° C. under aerobic conditions in an orbital shaker (180 rpm). […] Fungal suspension without treatment served as negative control (C−). […] The fungal growth rate (μ) was calculated during the exponential growth phase following the equation ln ODt−ln OD0=μ×(t−t0) (n=3).

The test system of the next test is P. aeruginosa. The test can be described thus: P. aeruginosa culture and proliferation assay. Conditions: 0.003% HCX, 3 h. In kind it is cell-based, Pseudomonas aeruginosa. The protocol: P. aeruginosa ATCC 27853 was grown from frozen stocks in LB broth (Scharlab), at 37° C. under aerobic conditions in an orbital shaker (180 rpm). After overnight incubation, 1 mL of bacterial suspensions were incubated with different concentrations of CHX (0.01, 0.005, 0.003, 0.001, 0.0001%) and HCX (0.003, 0.002, 0.001, 0.0002, 0.00002%) for 3 hours at 37° C. under aerobic conditions in an orbital shaker (180 rpm). Bacterial suspension without treatment served as negative control (C−). The optical density (OD) was measured at 600 nm at 0 h and 3 h to determine bacterial proliferation (PowerWave Ht). The bacterial growth rate (μ) was calculated during the exponential growth phase following the equation ln ODt−ln OD0=μ×(t−t0) (n=3).

As to `COc1c(O)cc2oc3cc4c(c(O)c3c(=O)c2c1CC=C(C)C)C=CC(C)(C)O4` [HCX, 9-hydroxycalabaxanthone], in the test on C. albicans, the fungal eliminated is recorded as 22%. In the test with P. aeruginosa, this compound came in with a bacteria eliminated of 32%.
